In publication PMC6328008 (Journal of Enzyme Inhibition and Medicinal Chemistry, 2019):
“Also recorded” adds a separate entry of the source.

Assays:
[1] = system: Panc1 pancreatic cancer cells; assay: Cancer cell line growth inhibition assay; format: cell-based, human; settings: for Inhibition of growth of Panc1 cells (in words): 3 days, concentrations up to 10 µM
[2] = system: normal mobilised peripheral blood progenitor cells; settings: listed as NSAH; cited from earlier work

SMILES | Inhibition of growth of Panc1 cells (in words) [1] | also measured
O=C1Nc2ccccc2/C1=N\NC(=O)c1ccccc1O [TP1, (E)-2-Hydroxy-N'-(2-oxoindolin-3-ylidene)benzohydrazide] | did not inhibit the growth | 
O=C(N/N=C/c1cc(-c2ccccc2)ccc1O)c1ccccc1O [TP2, (E)-2-Hydroxy-N'-((4-hydroxy-[1,1'-biphenyl]-3-yl)methylene)-benzohydrazide] |  | Fold decrease in potency in cells on removal of the methoxy (TP2, 3 vs TP5, 6) ([1]; Panc1): > 2 fold
O=C(N/N=C/c1cc(-c2ccsc2)ccc1O)c1ccccc1O [TP3, (E)-2-Hydroxy-N'-(2-hydroxy-5-(thiophen-3-yl)-benzylidene)-benzohydrazide] |  | Fold decrease in potency in cells on removal of the methoxy (TP2, 3 vs TP5, 6) ([1]; Panc1): > 2 fold
COc1ccc(-c2ccsc2)c(/C=N/NC(=O)c2ccccc2O)c1O [TP6, (E)-2-Hydroxy-N'-(2-hydroxy-3-methoxy-6-(thiophen-3-yl)benzylidene)-benzohydrazide] |  | Fold decrease in IC50 over lead compound NSAH (TP8) ([1]; Panc1): > 2 fold
Nc1ncnc2c1ncn2-c1ccc(/C=N/NC(=O)c2ccccc2O)cc1 [TP7, (E)-N'-(4–(6-amino-9H-purin-9-yl)benzylidene)-2-hydroxybenzohydrazide] | did not inhibit the growth | 
O=C(N/N=C/c1c(O)ccc2ccccc12)c1ccccc1O [TP8, (E)-2-Hydroxy-N'-((2-hydroxynaphthalen-1-yl)methylene)-benzohydrazide] |  | Toxicity against normal mobilised peripheral blood progenitor cells [2]: much less effective
COc1ccc(-c2cnc(-c3ccccc3O)s2)cc1 [TP9, 2–(5-(4-Methoxyphenyl)thiazol-2-yl)-phenol] | did not inhibit the growth; also recorded: ineffective | 
O=C(NNC(=O)c1c(O)ccc2ccccc12)c1cccnc1 [TP11, N'-(2-Hydroxy-1-naphthoyl)-nicotinohydrazide] | did not inhibit the growth | 
O=C(N/N=C/c1cccnc1)c1c(O)ccc2ccccc12 [TP12, (E)-2-Hydroxy-N'-(pyridin-3-ylmethylene)-1-naphthohydrazide] | did not inhibit the growth | 
O=C(NNC(=O)c1ccccc1O)c1cccnc1 [TP13, N'-(2-Hydroxybenzoyl)-nicotinohydrazide] | did not inhibit the growth | 
